Experimental data taken from PubChem BioAssay (NCI).
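In this assay, cells in 96-well plates receive the compound at five concentrations for 48 hours. Endpoints are linearly interpolated between the surrounding concentrations. GI50: concentration for 50% inhibition of growth. Definition used: TGI = concentration required for complete inhibition of growth.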

Key:
Assay in all cases: inhibition of tumour cell growth, NCI panel, 48 h
[1] = system: SF-268 CNS
[2] = system: RPMI-8226 leukemia
[3] = system: UACC-257 melanoma
[4] = system: OVCAR-4 ovarian
[5] = system: OVCAR-3 ovarian
[6] = system: HCC-2998 colon
[7] = system: SNB-19 CNS
[8] = system: COLO 205 colon
[9] = system: NCI-H23 lung
[10] = system: SF-295 CNS
[11] = system: MCF7 breast
[12] = system: A498 renal
[13] = system: OVCAR-5 ovarian
[14] = system: IGROV1 ovarian
[15] = system: HT29 colon
[16] = system: UACC-62 melanoma
[17] = system: KM12 colon
[18] = system: DU-145 prostate
[19] = system: U251 CNS
[20] = system: NCI-H460 lung
[21] = system: MALME-3M melanoma
[22] = system: ACHN renal
[23] = system: HOP-92 NSCLC
[24] = system: SK-MEL-28 melanoma
[25] = system: UO-31 renal
[26] = system: NCI-H226 lung
[27] = system: T-47D breast
[28] = system: K-562 leukemia
[29] = system: RXF 393 renal
[30] = system: EKVX NSCLC
[31] = system: MDA-MB-435
[32] = system: MDA-MB-231 breast
[33] = system: TK-10 renal
[34] = system: A549 NSCLC
[35] = system: SF-539 CNS
[36] = system: OVCAR-8 ovarian
[37] = system: CAKI-1 renal
[38] = system: SN12C renal
[39] = system: HS 578T breast
[40] = system: SK-MEL-2 melanoma
[41] = system: NCI-H522 lung
[42] = system: SK-MEL-5 melanoma
[43] = system: SNB-75 CNS
[44] = system: HL-60(TB) leukemia
[45] = system: PC-3 prostate
[46] = system: BT-549 breast
[47] = system: NCI/ADR-RES ovarian
[48] = system: SK-OV-3 ovarian
[49] = system: LOX IMVI melanoma
[50] = system: HCT-15 colon
[51] = system: CCRF-CEM leukemia
[52] = system: SW-620 colon

Compound: CCSc1nc(N2CCCCC2)c2cn[nH]c2n1
- GI50 [1]: 23.6 µM
- TGI [1]: 65.8 µM
- GI50 [2]: 28 µM
- TGI [2]: > 100 µM
- GI50 [3]: 58.7 µM
- TGI [3]: > 100 µM
- GI50 [4]: 88.3 µM
- TGI [4]: > 100 µM
- GI50 [5]: 27.9 µM
- TGI [5]: > 100 µM
- GI50 [6]: 42.6 µM
- TGI [6]: > 100 µM
- GI50 [7]: 45.6 µM
- TGI [7]: > 100 µM
- GI50 [8]: 21.3 µM
- TGI [8]: 56.8 µM
- GI50 [9]: 93.2 µM
- TGI [9]: > 100 µM
- GI50 [10]: 48.2 µM
- TGI [10]: > 100 µM
- GI50 [11]: 22.8 µM
- TGI [11]: 71.7 µM
- GI50 [12]: 10.5 µM
- TGI [12]: 41 µM
- GI50 [13]: 88.7 µM
- TGI [13]: > 100 µM
- GI50 [14]: 47 µM
- TGI [14]: > 100 µM
- GI50 [15]: 66.3 µM
- TGI [15]: > 100 µM
- GI50 [16]: 18.8 µM
- TGI [16]: 47.1 µM
- GI50 [17]: 29 µM
- TGI [17]: > 100 µM
- GI50 [18]: 18.4 µM
- TGI [18]: 75.5 µM
- GI50 [19]: 88.3 µM
- TGI [19]: > 100 µM
- GI50 [20]: 20.4 µM
- TGI [20]: 76.5 µM
- GI50 [21]: 37.1 µM
- TGI [21]: 97.5 µM
- GI50 [22]: 41.2 µM
- TGI [22]: > 100 µM
- GI50 [23]: 18.1 µM
- TGI [23]: > 100 µM
- GI50 [24]: 57.6 µM
- TGI [24]: > 100 µM
- GI50 [25]: 34 µM
- TGI [25]: > 100 µM
- GI50 [26]: 15.3 µM
- TGI [26]: 51.3 µM
- GI50 [27]: 16 µM
- TGI [27]: 62.4 µM
- GI50 [28]: 38 µM
- TGI [28]: > 100 µM
- GI50 [29]: 24.5 µM
- TGI [29]: 92.4 µM
- GI50 [30]: 16.1 µM
- TGI [30]: > 100 µM
- GI50 [31]: 28.8 µM
- TGI [31]: 75.6 µM
- GI50 [32]: 11.6 µM
- TGI [32]: > 100 µM
- GI50 [33]: 36.8 µM
- TGI [33]: > 100 µM
- GI50 [34]: 50.5 µM
- TGI [34]: > 100 µM
- GI50 [35]: 12.4 µM
- TGI [35]: 48.3 µM
- GI50 [36]: 43.6 µM
- TGI [36]: > 100 µM
- GI50 [37]: 19.8 µM
- TGI [37]: 59.7 µM
- GI50 [38]: 25.7 µM
- TGI [38]: > 100 µM
- GI50 [39]: 32.7 µM
- TGI [39]: > 100 µM
- GI50 [40]: 39.8 µM
- TGI [40]: > 100 µM
- GI50 [41]: 30.7 µM
- TGI [41]: > 100 µM
- GI50 [42]: 16.6 µM
- TGI [42]: 32.8 µM
- GI50 [43]: 74.9 µM
- TGI [43]: > 100 µM
- GI50 [44]: 27.4 µM
- TGI [44]: > 100 µM
- GI50 [45]: 20.7 µM
- TGI [45]: 79.1 µM
- GI50 [46]: 20.1 µM
- TGI [46]: 77.5 µM
- GI50 [47]: 92.5 µM
- TGI [47]: > 100 µM
- GI50 [48]: > 100 µM
- TGI [48]: > 100 µM
- GI50 [49]: 55.2 µM
- TGI [49]: > 100 µM
- GI50 [50]: > 100 µM
- TGI [50]: > 100 µM
- GI50 [51]: 34.7 µM
- TGI [51]: > 100 µM
- GI50 [52]: 40.1 µM
- TGI [52]: > 100 µM
